Values joined by “and” are separate entries in the source; they are usually repeats but may differ in a detail not shown here. Identical values can stand only once. Records with an inconclusive call do not appear.
System: Lewis lung carcinoma i.m., BDF1 mice, T/C %
Assay: NCI In Vivo Anticancer Drug Screen. Data for tumor model Lewis Lung Carcinoma (intramuscular) in B6D2F1 (BDF1) mice
Procedure, shortened: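 Compound given to mice with transplantable tumours; survival or tumour size compared against the vehicle control group, reported as T divided by C.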

[1] = endpoint: median survival time, dose: 8.0 mg/kg/injection, schedule: Q01DX Z (ip), vehicle: other, higher = longer survival
[2] = endpoint: median survival time, dose: 16.0 mg/kg/injection, schedule: Q01DX Z (ip), vehicle: other, higher = longer survival
[3] = endpoint: median survival time, dose: 32.0 mg/kg/injection, schedule: Q01DX Z (ip), vehicle: other, higher = longer survival

## O=C1N[C@@H]([C@H]2CC[C@H](Cl)CN2)C(=O)N[C@H]1[C@H]1CC[C@H](Cl)CN1
endpoint: mean tumor weight, dose: 0.5 mg/kg/injection, schedule: Q01DX011 (ip), vehicle: saline, higher = larger tumour
  T/C: 67 % of control and 92 % of control
endpoint: mean tumor weight, dose: 1.0 mg/kg/injection, schedule: Q01DX011 (ip), vehicle: saline, higher = larger tumour
  T/C: 65 % of control and 87 % of control
endpoint: mean tumor weight, dose: 2.0 mg/kg/injection, schedule: Q01DX011 (ip), vehicle: saline, higher = larger tumour
  T/C: 42 % of control and 64 % of control
endpoint: median survival time, dose: 0.5 mg/kg/injection, schedule: Q01DX011 (ip), vehicle: saline, higher = longer survival
  T/C: 105 % of control and 116 % of control
endpoint: median survival time, dose: 1.0 mg/kg/injection, schedule: Q01DX011 (ip), vehicle: saline, higher = longer survival
  T/C: 95 % of control and 119 % of control

## Nc1nc(Cl)nc2c1ncn2C1CC(O)C(CO)O1 (stereo not drawn)
[1]
  T/C: 93 % of control and 95 % of control
[2]
  T/C: 113 % of control
[3]
  T/C: 86 % of control

## CC(=O)n1cc(F)c(=O)[nH]c1=O
endpoint: median survival time, dose: 6.0 mg/kg/injection, schedule: Q01DX011 (ip), vehicle: saline, higher = longer survival
  T/C: 98 % of control
endpoint: median survival time, dose: 12.0 mg/kg/injection, schedule: Q01DX011 (ip), vehicle: saline, higher = longer survival
  T/C: 111 % of control
endpoint: median survival time, dose: 24.0 mg/kg/injection, schedule: Q01DX011 (ip), vehicle: saline, higher = longer survival
  T/C: 109 % of control

## CC(=O)NNC(=O)c1ccccn1
[1]
  T/C: 86 % of control
[2]
  T/C: 86 % of control
[3]
  T/C: 86 % of control
endpoint: median survival time, dose: 64.0 mg/kg/injection, schedule: Q01DX Z (ip), vehicle: other, higher = longer survival
  T/C: 91 % of control

## O=C(O)CCCC1CCCCC1.[Cu+2]
endpoint: mean tumor weight (est.), dose: 6.25 mg/kg/injection, schedule: Q01DX011 (ip), vehicle: saline with Tween-80, higher = larger tumour
  T/C: 61 % of control

## CCN1c2ccccc2C(Cl)(c2ccc(N(C)C)cc2)c2ccccc21
endpoint: mean tumor weight (est.), dose: 3.13 mg/kg/injection, schedule: Q01DX011 (ip), vehicle: saline, higher = larger tumour
  T/C: 121 % of control
endpoint: mean tumor weight (est.), dose: 6.25 mg/kg/injection, schedule: Q01DX011 (ip), vehicle: saline, higher = larger tumour
  T/C: 50 % of control
endpoint: mean tumor weight (est.), dose: 12.5 mg/kg/injection, schedule: Q01DX011 (ip), vehicle: saline, higher = larger tumour
  T/C: 47 % of control

## FC(F)(F)c1nc2nc(Cl)c(Cl)nc2[nH]1
endpoint: median survival time, dose: 8.0 mg/kg/injection, schedule: Q01DX011 (ip), vehicle: saline, higher = longer survival
  T/C: 107 % of control
endpoint: median survival time, dose: 16.0 mg/kg/injection, schedule: Q01DX011 (ip), vehicle: saline, higher = longer survival
  T/C: 112 % of control
endpoint: median survival time, dose: 32.0 mg/kg/injection, schedule: Q01DX011 (ip), vehicle: saline, higher = longer survival
  T/C: 116 % of control

## CS(=O)(=O)OCC(O)C(O)COS(C)(=O)=O (stereo not drawn)
endpoint: median survival time, dose: 100.0 mg/kg/injection, schedule: Q01DX011 (ip), vehicle: saline, higher = longer survival
  T/C: 100 % of control
endpoint: median survival time, dose: 400.0 mg/kg/injection, schedule: Q01DX011 (ip), vehicle: saline, higher = longer survival
  T/C: 100 % of control

## CN(C)CCCNc1c2ccccc2nc2cccc([N+](=O)[O-])c12
endpoint: median survival time, dose: 0.1 mg/kg/injection, schedule: Q02DX011 (ip), vehicle: saline, higher = longer survival
  T/C: 88 % of control
endpoint: median survival time, dose: 2.0 micrograms/kg/injection, schedule: Q01DX009 (ip), vehicle: saline, higher = longer survival
  T/C: 120 % of control
endpoint: median survival time, dose: 4.0 micrograms/kg/injection, schedule: Q01DX009 (ip), vehicle: saline, higher = longer survival
  T/C: 92 % of control and 104 % of control
endpoint: median survival time, dose: 16.0 micrograms/kg/injection, schedule: Q01DX009 (ip), vehicle: saline, higher = longer survival
  T/C: 109 % of control
endpoint: median survival time, dose: 32.0 micrograms/kg/injection, schedule: Q01DX009 (ip), vehicle: saline, higher = longer survival
  T/C: 100 % of control
endpoint: median survival time, dose: 64.0 micrograms/kg/injection, schedule: Q01DX009 (ip), vehicle: saline, higher = longer survival
  T/C: 88 % of control and 107 % of control

## CCCCCCCCCCCCn1c(C)nc2ccccc21
endpoint: mean tumor weight (est.), dose: 0.63 mg/kg/injection, schedule: Q01DX011 (ip), vehicle: saline, higher = larger tumour
  T/C: 84 % of control
endpoint: mean tumor weight (est.), dose: 1.25 mg/kg/injection, schedule: Q01DX011 (ip), vehicle: saline, higher = larger tumour
  T/C: 89 % of control
endpoint: median survival time, dose: 0.63 mg/kg/injection, schedule: Q01DX011 (ip), vehicle: saline, higher = longer survival
  T/C: 104 % of control
endpoint: median survival time, dose: 1.25 mg/kg/injection, schedule: Q01DX011 (ip), vehicle: saline, higher = longer survival
  T/C: 98 % of control

## CC(C(=O)O)N1C(=O)c2ccccc2C1=O (stereo not drawn)
endpoint: median survival time, dose: 4.0 mg/kg/injection, schedule: Q01DX009 (ip), vehicle: water, higher = longer survival
  T/C: 110 % of control
endpoint: median survival time, dose: 8.0 mg/kg/injection, schedule: Q01DX009 (ip), vehicle: water, higher = longer survival
  T/C: 107 % of control
endpoint: median survival time, dose: 16.0 mg/kg/injection, schedule: Q01DX009 (ip), vehicle: water, higher = longer survival
  T/C: 103 % of control
endpoint: median survival time, dose: 32.0 mg/kg/injection, schedule: Q01DX009 (ip), vehicle: water, higher = longer survival
  T/C: 108 % of control

— PubChem BioAssay AID272 (DTP/NCI, 2004)
